The target in one assay is T1, V1b receptor (Homo sapiens, UniProt P47901).
T1 construct: expressed in transfected cells; host or cells: CHO-K1 (ATCC), vector PCI-neo
T1 sequence (P47901 1-424): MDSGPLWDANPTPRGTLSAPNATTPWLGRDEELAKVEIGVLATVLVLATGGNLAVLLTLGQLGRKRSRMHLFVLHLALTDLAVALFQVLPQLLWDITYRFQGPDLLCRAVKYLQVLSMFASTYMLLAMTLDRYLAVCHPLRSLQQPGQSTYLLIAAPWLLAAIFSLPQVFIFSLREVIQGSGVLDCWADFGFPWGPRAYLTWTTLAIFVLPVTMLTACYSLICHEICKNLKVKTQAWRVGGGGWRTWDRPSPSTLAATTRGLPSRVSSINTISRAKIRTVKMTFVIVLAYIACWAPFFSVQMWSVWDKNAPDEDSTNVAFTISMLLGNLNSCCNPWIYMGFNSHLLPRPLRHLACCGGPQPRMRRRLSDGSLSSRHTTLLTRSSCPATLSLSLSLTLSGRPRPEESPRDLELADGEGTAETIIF
The assay is described as follows: Human or rat vasopressin V1b cell-based receptor binding assay. To be noted: selectivity table; read-out: inhibition data (Ki, nM), Receptor V1b. The text has this: Human vasopression V1b receptor-expressing cells. Human vasopressin receptor 1b (hV1b) cDNA (see, Lolait et al., “Extrapituitary expression of the rat V1b vasopressin receptor gene” Proc. Natl. Acad. Sci. USA. 92:6783-7 (1995); de Keyzer et al., “Cloning and characterization of the human V3(V1b) pituitary vasopressin receptor” FEBS Lett. 356:215-20 (1994); Sugimoto et al., “Molecular cloning and functional expression of a cDNA encoding the human V1b vasopressin receptor” J. Biol. Chem. 269:27088-92 (1994)) was inserted into a mammalian cell expression vector PCI-neo (Promega) at EcoR1 site. The recombinant plasmid carrying hV1b cDNA was identified from transformed E. Coli clones and used for the transfection of Chinese hamster ovary cell (CHO-K1, ATCC). Two micrograms of hV1b receptor DNA was introduced into 10^5 CHO cells cultured in 6-well plate, using Fugene-6 mediated transfection technique (Boehringer Mannheim). Twenty-four hrs post transfection, Cells were then cultured under selection of G-418 (0.25 mg/ml) supplemented to the culture medium. Three days later, limited dilution was carried out to obtain single cell clones in 96-well plates. […]
Human or rat vasopression V1b cell-based receptor binding assay. […] Samples were counted in a liquid scintillation counter (Beckman LS3801). IC50 and Ki values were calculated using Prism Curve fitting software. […]

Assay [1] has as its system adult male Long Evans rats. Put plainly: Light:Dark Shuttle Box. In kind it is in vivo, rat. The method, then:
Anxiolytic Effect in the Light:Dark Shuttle Box. The light:dark shuttle box is a standard and well characterized assay for anxiolytic effects of a test compound. Rats naturally avoid the light side of the box because it is stressful. Increased time on the light side by the treatment group compared to control reflects an anxiolytic effect (Bourin and Hascoet, 2003). Adult male Long Evans rats were administered AVN251 (0.1-2 mg/kg) by oral gavage 90 min prior to testing in a light: dark shuttle box.

The next assay deals with V2 (Homo sapiens, UniProt P30518). Put plainly: V2 receptor inhibition data (Ki). The format is binding. To be noted: selectivity table.
Chain of V2 (P30518 whole entry): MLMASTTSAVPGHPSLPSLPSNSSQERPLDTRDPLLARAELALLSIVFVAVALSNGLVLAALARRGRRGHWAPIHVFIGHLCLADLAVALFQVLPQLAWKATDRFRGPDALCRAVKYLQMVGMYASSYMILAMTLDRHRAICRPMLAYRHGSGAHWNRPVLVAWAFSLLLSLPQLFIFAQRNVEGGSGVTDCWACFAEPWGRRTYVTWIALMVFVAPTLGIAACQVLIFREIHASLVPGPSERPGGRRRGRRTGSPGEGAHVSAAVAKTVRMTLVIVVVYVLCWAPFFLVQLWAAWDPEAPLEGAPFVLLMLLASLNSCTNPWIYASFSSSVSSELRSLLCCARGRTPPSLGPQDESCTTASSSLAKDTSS

A word on the Ki: it is the equilibrium dissociation constant of an inhibitor or competing ligand from its target. In the case of `CN(Cc1cccc(C(F)(F)F)c1)C(=O)[C@@H](CC(=O)N1CCC(N2CCCCC2)CC1)N1C(=O)[C@@H](N2C(=O)OC[C@@H]2c2ccccc2)[C@H]1C=Cc1ccccc1` [Example 225, 2(R)-[[4-(Piperidinyl)piperidinyl]carbonylmethyl]-2-[3(S)-(4(S)-phenyloxazolidin-2-on-3-yl)-4(R)-(2-styryl)azetidin-2-on-1-yl]acetic acid N-methyl-N-(3-trifluoromethylbenzyl)amide], the inhibitory constant (Ki) on V1b receptor is over 1000 nM. The anxiety vs. vehicle entry in assay [1] (0.1-2 mg/kg oral gavage 90 min prior to testing) is “dose dependent decrease in anxiety”. Besides, in assay [1] (1 or 2 mg/kg oral gavage), the “light-dark entries (FIG. 2C)” value is “more light-dark entries”, the “time in the dark (FIG. 2B)” value was “less time in the dark” and the “time in the light (FIG. 2A)” value is listed as “significantly more time in the light”. At V2, the Ki is over 1000 nM.

These data come from US9376424B2, “Methods for treating post traumatic stress disorder” (AZEVAN PHARMACEUTICALS, INC., priority 2010, dated 2016).
